{"source": "patent US12697367B2", "about": "“Medicament for improving or preventing symptoms relating to retina and/or light reception and method for screening for substance capable of improving or preventing symptoms relating to retina and/or light reception” (Osaka University, priority 2018, dated 2026)", "key": {"[1]": {"system": "BALB/c mice with light-induced damage (blue LED light)", "test": "Light-induced damage experiment in mice: immunofluorescence staining of the photoreceptor layer of the retina", "type": "in vivo", "conditions": "tacrolimus 10 mg/kg subcutaneously every day for 6 days", "description": "For dark adaptation, BALB/c mice aged 4 weeks (Japan SLC, Inc.) were housed in the dark for 12 hours. […] For control mice, DMSO was administered. Mydriatic eye drops, […] Pharmaceutical Co., Ltd.), were administered in the dark 30 minutes before completion of dark adaptation. The mice were placed in a box with four mirrored walls and a mirrored floor, and exposed to blue light from a blue LED light. The wavelength of the blue LED light was about 450 nm, and the light reaching the mice was about 7000 lx. After exposure to blue light for 3 hours, the mice were housed under normal light conditions (about 30 lx light from fluorescent lamps) for 9 hours. This dark/light cycle repeated as one cycle for 6 days. In other words, administration of the drug and exposure to blue light (3 hours) were performed every day for 6 days to induce light-induced damage. On the next day following the last exposure to blue light, the mice were euthanized and the eyes were harvested. The specimens were fixed in 4% paraformaldehyde/PBS (phosphate buffer saline) at room temperature for 5 minutes. The specimens were then washed with PBS, and embedded in O.C.T. compound (Sakura Finetek). Retinal cryosections of 20 μm thick were sliced with a cryostat, mounted on glass slides, and dried at room temperature. The sections were washed twice with PBS, and blocked with blocking buffer (5% normal donkey serum and 0.1% TritonX-100 in PBS) at room temperature for 1 hour. The sections were reacted with primary antibodies at 4° C. overnight. The sections were washed three times with PBS, and reacted with secondary antibodies at room temperature for 2 hours. The primary antibodies used in this study were anti-Rhodopsin antibody (rhodopsin, rabbit polyclonal, Santa Cruz, 1:500 dilution), anti-S-opsin antibody (S-opsin (blue cone opsin), goat polyclonal, Santa Cruz, 1:500 dilution), and anti-M-opsin antibody (M-opsin (green cone opsin), rabbit polyclonal, Millipore, 1:500 dilution). […] All the fluorescence images were acquired under a confocal laser scanning microscope (LSM 700, Carl Zeiss)."}, "[2]": {"system": "BALB/c mice with light-induced damage (blue LED light)", "test": "Light-induced damage experiment in mice: measurement of thickness of photoreceptor layer", "type": "in vivo", "conditions": "tacrolimus 10 mg/kg subcutaneously every day for 6 days; blue light about 450 nm, about 7000 lx, 3 hours daily; vs DMSO control; FIG. 3", "description": "For dark adaptation, BALB/c mice aged 4 weeks (Japan SLC, Inc.) were housed in the dark for 12 hours. […] For control mice, DMSO was administered. Mydriatic eye drops, Cyplegin (Santen Pharmaceutical Co., Ltd.), were administered in the dark 30 minutes before completion of dark adaptation. The mice were placed in a box with four mirrored walls and a mirrored floor, and exposed to blue light from a blue LED light. The wavelength of the blue LED light was about 450 nm, and the light reaching the mice was about 7000 lx. After exposure to blue light for 3 hours, the mice were housed under normal light conditions (about 30 lx light from fluorescent lamps) for 9 hours. This dark/light cycle repeated as one cycle for 6 days. In other words, administration of the drug and exposure to blue light (3 hours) were performed every day for 6 days to induce light-induced damage.\nMouse retinal sections prepared in the same manner as above were washed twice with PBS, and the nuclei were stained with DAPI. The thickness of the photoreceptor layer was measured as the distance from the optic nerve. Specifically, the images were acquired under a confocal laser scanning microscope (LSM 700, Carl Zeiss), and the thickness of the photoreceptor layer was measured using the image analysis software Metamorph (Molecular Devices)."}}}
{"smiles": "C=CC[C@@H]1/C=C(\\C)C[C@H](C)C[C@H](OC)[C@H]2O[C@@](O)(C(=O)C(=O)N3CCCC[C@H]3C(=O)O[C@H](/C(C)=C/[C@@H]3CC[C@@H](O)[C@H](OC)C3)[C@H](C)[C@@H](O)CC1=O)[C@H](C)C[C@@H]2OC", "note": "[tacrolimus, (3S,4R,5S,8R,9E,12S,14S,15R,16S,18R,19R,26aS)-5,19-Dihydroxy-3-{(1E)-2-[(1R,3R,4R)-4-hydroxy-3-methoxycyclohexyl]-1-methylethenyl}-14,16-dimethoxy-4,10,12,18-tetramethyl-8-(prop-2-en-1-yl)-15,19-epoxy-5,6,8,11,12,13,14,15,16,17,18,19,24,25,26,26a-hexadecahydro-3H-pyrido[2,1-c][1,4]oxaazacyclotricosine-1,7,20,21(4H,23H)-tetrone monohydrate]", "values": [{"measurement": "structure of the outer segment of the rod photoreceptor cells (anti-Rhodopsin antibody staining)", "setting": "[1]; blue light about 450 nm, about 7000 lx, 3 hours daily, vs DMSO control, FIG. 1", "result": "maintained and comparable to that of control mice without light-induced damage"}, {"measurement": "structure of the cone photoreceptor cells (anti-S-opsin and anti-M-opsin antibody staining)", "setting": "[1]; blue light about 450 nm, about 7000 lx, 3 hours daily, vs DMSO control, FIG. 2", "result": "maintained and comparable to that of control mice without light-induced damage"}, {"measurement": "degeneration of photoreceptor cells due to light exposure (overall conclusion)", "setting": "[1]; mice with light-induced damage", "result": "inhibits the degeneration of photoreceptor cells due to light exposure"}, {"measurement": "thickness of the photoreceptor layer", "setting": "[2]", "result": "maintained and comparable to that of control mice without light-induced damage"}]}
